From US8716256B2, “Method of therapy and diagnosis of atherosclerosis” (Kaoshiung Medical University, priority 2011, dated 2014)

How the values were obtained:
Type in all cases: cell-based, human
[1] = tested on: OCT-1; assay: OCT-1 expression in HASMC by real time PCR and western blot; conditions: for protein levels of OCT-1 (western blot): HASMC with suppressor, with or without oxLDL, FIGS. 23, 28
Experimental: The following trials stress on the mechanism between let-7g, LOX-1, oxLDL and OCT-1. In FIG. 17, the expression of OCT-1 under various levels of oxLDL is shown. In the present embodiment, […], and then total RNA samples and protein samples of the HASMC are prepared and analyzed by the real time PCR and western blot assay of the present invention. Precisely, the preparation of the total RNA samples and the protein samples of the HASMC, also the PCR program and western blot assay are performed according to the above protocols. Moreover, a primer pair of OCT-1 set forth in SEQ ID NO. 19 and 20 is designed and used in real time PCR analysis, and a commercial OCT-1 antibody (Sigma-Aldrich Inc, MO, USA) is used in western blot assay.
In the present embodiment, primer pairs set forth in SEQ ID NO. 3, 4, 7, 8, 19, 20, the LOX-1 antibody, and the OCT-1 antibody are used respectively in PCR or western blot assay.
With reference to FIG. […] More specifically, […], such as 0, 25, 50, and 75 μg/ml, […] 2000, […] by real time PCR and western blot according to the protocols described above. Moreover, primer pairs set forth in SEQ ID NO. 19 and 20, and the OCT-1 antibody are used respectively in PCR or western blot analysis.

[2] = tested on: LOX-1; assay: LOX-1 expression in HASMC by real time PCR and western blot; conditions: for oxLDL-induced LOX-1 expression (mRNA): HASMC treated with oxLDL plus suppressor, FIGS. 19, 22, 26; for protein levels of LOX-1 (western blot): HASMC with suppressor, with or without oxLDL, FIGS. 20, 23, 28
Experimental: With reference to FIG. 2, there center on the expression of oxLDL and LOX-1 in human aortic smooth muscle cells. In the present embodiment, a primary human aortic smooth muscle cells (HASMC) cell line purchased from Cascade Biologics (OR, USA) is prepared and treated with various levels of oxLDL. More specifically, the HASMC cell line is incubated in a commercial smooth muscle cell growth supplement (SMGS) medium (Cascade Biologics, OR, USA) at 37° C. in a humidified atmosphere of 95% air and 5% CO2.
In the present embodiment, the HASMC cell line is grown in a 6-well plate till at a density of 2×10^5 cell/well, and then randomly assigned into four groups. The four groups of HASMC are co-cultured with 0, 20, 40, and 60 μg/ml of oxLDL individually for 24 hours, followed by analyzing the gene expression of HASMC via real time polymerase chain reaction (PCR) and western blot. Total RNA samples of the four groups of HASMC are prepared by using a Trizol® reagent (Invitrogen, CA, USA), and further quantitatively confirmed by a spectrophotometer at A260/A280 readings. Then, cDNA samples of the four groups of HASMC are synthesized by using a random primer and a MultiScribe™ Reverse Transcriptase Kit (Applied Biosystems Inc, CA, USA). The cDNA samples of the four groups of HASMC are sequentially diluted in 2×SYBR Green PCR Master Mix (Applied Biosystems Inc, CA, USA) to carry out quantitative real time PCR analysis. In the present invention, a primer pair of LOX-1 is designed and used in the real time PCR analysis, wherein the primer pair of LOX-1 is set forth in SEQ ID NO. 3 and 4.
On the other hand, protein samples of the four groups of HASMC are prepared by harvesting the four groups of HASMC in RIPA buffer (Invitrogen, CA, USA) firstly and centrifuged at 4° C. 1,2000 rpm to obtain supernatants as total cell lysate of the four groups of HASMC. In the present embodiment, the four groups of protein lysate are denatured in a mixture of 2% SDS, 10 mM dithiothreitol, 60 mM Tris-HCl (pH6.8) and 0.1% bromphenol blue, and then analyzed by polyacrylamide/SDS gel. Data obtained from the polyacrylamide/SDS gel analysis are further transferred to PVDF membrane for western blot assay.
In FIG. 9, the expression of LOX-1 in HASMC under various levels of let-7g is monitored and reordered. […]
(§1) In the present embodiment, the HASMCs are randomly assigned into four groups, including groups (O1), as a control; (O2), with treatment of oxLDL; (O3), with co-transfection of the OCT-1 shRNA; and (O4), with co-transfection of the OCT-1 shRNA and treatment of oxLDL, wherein total RNA samples and protein sample of those groups are extracted and analyzed by the real time PCR and the western blot of the present invention. […]

[3] = tested on: let-7g; assay: let-7g expression in HASMC by northern blot and real time PCR; conditions: HASMC treated with oxLDL plus suppressor; FIGS. 18, 21, 25
Experimental: In FIGS. 7 and 8, there is the relationship between oxLDL and let-7g in the HASMC. In the present embodiment, the HASMC are treated with various levels of oxLDL, for example 0, 20, 40 and 60 μg/ml, in order to monitor and to recorder the effect of oxLDL on let-7g. Similarly, the HASMC cell is grown in a 6-well plate till at a density of 2×10^5 cell/well, and then randomly assigned into plural groups with the treatment of 0, 20, 40 and 60 μg/ml oxLDL individually for 24 hours. Finally, total RNA samples of each group of HASMC are analyzed by northern blot and quantified real time PCR via above protocols. In the present embodiment, a primer pair of let-7g as set forth in SEQ ID NO: 7 and 8 is used in the teal time PCR analysis according to the same PCR program described above. Also, the northern blot of the present invention is determined by using a miRNA northern blot assay kit (Applied Biosystems, CA, USA). […]
as §1

[4] = tested on: 3'UTR region of LOX-1; assay: LOX-1 3'UTR luciferase reporter assay in CRL-1999 cells; conditions: groups U1 to U7, FIG. 12
Excerpt: Referring to FIGS. 10 and 11, the relationship between oxLDL, LOX-1 and let-7g is further identified. In the present invention, the 3′UTR region of LOX-1 is cloned into a commercial vector, preferably downstream of a reporter gene, such as a luciferase gene, for the sake of studying the effect of oxLDL and let-7g on LOX-1 by estimating the activity of the reporter gene. In the present embodiment, a pMIR-LOX-1-3UTR vector is obtained by PCR amplifying the 3′UTR region of LOX-1 in the chromosome DNA of HASMC with a primer pair set forth in SEQ ID NO. 9 and 10; and cloning the amplified 3′UTR region of LOX-1 into a pMIR-REpORT luciferase vector (Ambion Inc, TX, USA). Furthermore, the pMIR-LOX-1-3UTR vector of the present embodiment is transfected into a human smooth muscle cell line CRL-1999 purchased from ATCC (Manassas, Va., USA) by using lipofectamine 2000 (Invitrogen Inc, CA, USA). In the present embodiment, the CRL-1999 cell line of the present embodiment is incubated in F12K Kaighn's modification medium (GIBCO-BRL, MD, USA) with various levels of oxLDL and let-7g mimic, followed by analyzed the activity of luciferase by a Luciferase Assay System (Promega, WI, USA). […]

Compound | oxLDL-induced OCT-1 expression (mRNA) ([1]; HASMC treated with oxLDL plus MAPTAM, FIG. 27) | protein levels of OCT-1 (western blot) [1] | oxLDL-induced LOX-1 expression (mRNA) [2] | protein levels of LOX-1 (western blot) [2] | oxLDL-mediated inhibition on let-7g (relative let-7g levels) [3] | luciferase activity, pMIR-LOX-1-3UTR versus pMIR-LOX-1 mutant 3'UTR [4]
CC(=O)OCOC(=O)CN(CC(=O)OCOC(C)=O)c1ccc(C)cc1OCCOc1cc(C)ccc1N(CC(=O)OCOC(C)=O)CC(=O)OCOC(C)=O [MAPTAM] | decreased | significant decrease | decreased | significant decrease | decreased | 
COc1ccc2c(c[n+](C)c3c4cc5c(cc4ccc23)OCO5)c1OC [chelerythrine] |  | significant decrease | inhibited | significant decrease | inhibited | 
let-7g: mature form of microRNA-let-7g, as set forth in SEQ ID NO. 2 (UGAGGUAGUAGUUUGUACAGUU; listed as RNA, chemistry not given here; listed as Homo sapiens) |  |  |  |  |  | targets to the 3′UTR region of LOX-1 to suppress the expression of LOX-1
